Values after ≈ are worked out from the molar mass of the structure shown. Values joined by “and” are separate entries in the source; they are usually repeats but may differ in a detail not shown here. Equal values may be shown once. Read-outs that look alike come from different tables or passages of the source. Values belong to the compound of their own block, whether it stands above or below them.
What was measured:
[1] = tested on: MSSA (Newman); experiment: microbe, parasite or virus in culture; details: for MIC: Staphylococcus aureus
Description: (§1) For 15 d in MHB, MICs were determined daily for each pseudopeptide and their antibiotic controls. This was done using cells from the well in which the compound concentration was one-half of the MIC (1/2MIC). For each compound, the 1/2MIC well from the previous day’s MIC assay plate was re-suspended and the bacteria grown to a density of about 10^8 cells ml−1. The suspension was diluted in MHB or CAMHB (10^6 cells/ml) and then used to determine the MIC of the same compound determined by micro broth dilution. All MIC measurements were performed in duplicate. Aliquots of the 5 × 10^4 cell/ml dilutions for each 1/2MIC well were periodically plated on MHB and incubated at 35°C for 18 h to verify cell density by colony counts and for visual inspection of colony phenotypes. To control compound stability, peptide solution MICs were determined during and at the end of the 15 d and were compared to cells unexposed to antibiotics. In vivo resistance was also assessed in treated mice (1.5 mg.kg^−1) for 4 d (sepsis) or 6 d (skin abscesses). […] The broth microdilution method was performed as per EUCAST recommendations on 5 independent colonies per mouse (3 mice per set, 15 colonies per drug tested). For severe sepsis and subcutaneous abscesses, in vivo resistance was determined by plating aliquots of crude kidney extracts or abscesses on plates containing 1-, 2-, 4-, or 8-fold the peptide MICs 7 or 3 d post infections, respectively.

[2] = tested on: MRSA (Mu3); experiment: microbe, parasite or virus in culture
Description: as §1

[3] = tested on: S. aureus N315 (MRSA); experiment: microbe, parasite or virus in culture
Description: (§2) (10−4 M final concentrations). At selected time intervals, 100 μl of reaction mixture was collected, quenched by 200 μl 95% EtOH, and adjusted at pH 2 to prevent peptide adsorption to serum proteins. […] Supernatants were analyzed by RP-HPLC on an Xbridge C18 column with a linear gradient of water, 0.08% TFA, and acetonitrile with 1% TFA. HPLC peak areas were used to calculate the percentages of intact compound remaining at the various time points. MIC and MBC values were determined in triplicate in many ESKAPE clinical isolates, including a dozen MDR S. aureus, by the broth microdilution method. Peptidomimetics and antibiotics were assayed in a concentration range of 1 to 128 μM. The bacterial inoculum (5 × 10^5 colony-forming units [CFUs]/well) was prepared in MHB or CAMHB (150 μl). A Biotek Synergy 2 spectrophotometer was used to record the results after 18–20 h incubation at 35°C (±2°C). […] After every hour of culture for 4 h, serial dilutions were plated on BHI plates and incubated overnight at 37°C, and then the CFUs were counted and expressed as log CFU/ml. Phosphate-buffered saline (PBS)-exposed S. aureus MRSA was included as a control.

[4] = tested on: P. aeruginosa LESB58; experiment: Cutaneous abscess mouse model (CFU); format: in vivo, mice; details: cutaneous abscesses induced by P. aeruginosa in mice; repeated doses post-infection, 9 mg/kg; second data set; individual values
Description: For the cutaneous abscess model, the mice were randomly divided into 5 sets. The mice were anesthetized with isoflurane, their dorsal fur shaved, and their skin disinfected with 70% ethanol. An overnight culture of S. aureus MRSA or P. aeruginosa LESB58 was washed with 0.9% NaCl, and then a subcutaneous injection of 2 × 10^9 CFUs and an equal amount of sterile Cytodex microcarrier beads (20 mg.ml^−1, Sigma) for S. aureus MRSA, or 10^8 CFUs for P. aeruginosa were injected into the shaved area. […] Mice were monitored every day and then euthanized with CO2 on Day 6 or on Day 3. Abscesses were excised, measured, and homogenized in PBS using an Ultra-Turax. Serial dilutions of the samples were plated on BHI (MRSA) or 2YT medium (LESB58) plates and then incubated overnight at 37°C. Afterward, the CFUs were counted and expressed as log CFU/ml. Dermonecrosis areas were calculated according to the formula π × L × W. ATP levels were determined with an ATP assay kit (Promega) according to manufacturer instructions on sets of 5 colonies harboring the SCV phenotype, and sets of 5 colonies harboring a normal phenotype, after growth on BHI plates.

[5] = Stability in human serum (half-life); format: in vitro ADME; details: 25% human serum, pre-incubated 15 min at 37°C, peptide 10^−4 M, RP-HPLC peak areas, mean of biological triplicates
Description: as §2
(§3) Supplementary file pbio.3000337.s013.docx: S7 Table Peptide half-lives in human and mouse sera. […] Peptide amounts and half-lives were determined by HPLC. Experiments were conducted on 25% human or mouse sera. Values are shown in minutes. The mean values correspond to biological triplicates. HPLC, high pressure liquid chromatography. (DOCX) Click here for additional data file.

[6] = Stability in mouse serum (half-life); format: in vitro ADME; details: 25% mouse serum, pre-incubated 15 min at 37°C, peptide 10^−4 M, RP-HPLC peak areas, mean of biological triplicates
Description: as §2, §3

[7] = tested on: P. aeruginosa PA14; details: P. aeruginosa PA14
Description: as §2

[8] = tested on: Escherichia coli 750
Description: as §2

[9] = tested on: A. baumanii 7985
Description: as §2

[10] = tested on: K. pneumoniae 13825
Description: as §2

[11] = tested on: Escherichia coli 13090
Description: as §2

[12] = tested on: K. pneumoniae 13829
Description: as §2

[13] = tested on: P. aeruginosa 15643
Description: as §2

[14] = tested on: Escherichia coli 283
Description: as §2

[15] = tested on: P. aeruginosa 15644
Description: as §2

[16] = tested on: Escherichia coli 146
Description: as §2

[17] = tested on: A. baumanii 11896
Description: as §2

[18] = tested on: Escherichia coli ML35P; details: E. coli ML35P
Description: as §2

[19] = tested on: Enterobacter cloacae ATCC13047; details: Enterobacter cloacae ATCC13047
Description: as §2

[20] = tested on: P. aeruginosa 15641
Description: as §2

[21] = tested on: P. aeruginosa 15637
Description: as §2

[22] = tested on: Escherichia coli 508
Description: as §2

[23] = tested on: Escherichia coli 293
Description: as §2

[24] = tested on: Escherichia coli 758
Description: as §2

[25] = tested on: Escherichia coli 444
Description: as §2

[26] = tested on: Escherichia coli PV; details: E. coli PV
Description: as §2

[27] = tested on: Escherichia coli K12; details: E. coli K12; for MIC: broth microdilution, 3 independent experiments
Description: as §2

[28] = tested on: P. aeruginosa 15638
Description: as §2

[29] = tested on: Escherichia coli MCR−1
Description: as §2

[30] = tested on: Escherichia coli 066
Description: as §2

[31] = tested on: S. aureus Mu3 (MRSA); experiment: microbe, parasite or virus in culture; details: S. aureus Mu3 (MRSA); broth microdilution; 3 independent experiments
Description: as §2

[32] = tested on: S. aureus Newman; experiment: microbe, parasite or virus in culture; details: S. aureus Newman; broth microdilution; 3 independent experiments
Description: as §2

[33] = tested on: P. aeruginosa 15643; experiment: microbe, parasite or virus in culture
Description: as §1

[34] = tested on: E. coli K12; experiment: microbe, parasite or virus in culture
Description: as §1

[35] = tested on: E. coli MCR1; experiment: microbe, parasite or virus in culture
Description: as §1

[36] = tested on: E. coli 13090; experiment: microbe, parasite or virus in culture
Description: as §1

[37] = broth microdilution, 3 independent experiments

Compound: CO[C@H]1/C=C/O[C@@]2(C)Oc3c(C)c(O)c4c(O)c(c(/C=N/N5CCN(C)CC5)c(O)c4c3C2=O)NC(=O)/C(C)=C\C=C\[C@H](C)[C@H](O)[C@@H](C)[C@@H](O)[C@@H](C)[C@H](OC(C)=O)[C@@H]1C [Rifampicin, rifampicin]
- Increase of MIC after 2 weeks of serial passages ([1]; S. aureus): about 30,000 fold
- MIC ([1]; MSSA (Newman), d0 of serial passages): 0.03 µM (≈ 0.0247 µg/mL)
- MIC ([1]; MSSA|NEWMAN, d14 of serial passages at sub-MIC): 1020 µM (≈ 843 µg/mL)
- MIC ([2]; MRSA (Mu3), d14 of serial passages at sub-MIC): 1,024 (843) μM
- MIC ([2]; Staphylococcus aureus, MRSA): 1020 µM (≈ 843 µg/mL)

- MIC ([3]; Staphylococcus aureus, MRSA): 32 µM
Compound: COc1cccc(OC)c1C(=O)N[C@@H]1C(=O)N2[C@@H]1SC(C)(C)[C@@H]2C(=O)O [Methicillin, methicillin]

Compound: Colistine
- CFU counts per abscess [4]: 3.8 log Cfu/ml and 4 log Cfu/ml and 4.8 log Cfu/ml and 4.6 log Cfu/ml

Compound: polymyxin B [reference compound]
- Half-life in human serum [5]: 23 ± 3.33 h
- Half-life in mouse serum [6]: 10.7 ± 2.7 h
- MBC/MIC [7]: 2
- MIC [7, 37]: 0.5 (0.65) μM
- MBC/MIC ([8]; E. coli 750): 1
- MIC ([8]; E. coli 750, clinical strain, Rennes urinary catheter, broth microdilution, 3 independent experiments): 1 (1.3) μM
- MBC/MIC ([9]; A. baumanii 7985): 1
- MIC ([9]; A. baumanii 7985, clinical strain, Caen hemoculture, broth microdilution, 3 independent experiments): 1 (1.3) μM
- MBC/MIC ([10]; K. pneumoniae 13825): 2
- MIC ([10]; K. pneumoniae 13825, clinical strain, Caen hemoculture, broth microdilution, 3 independent experiments): 2 (2.6) μM
- MBC/MIC ([11]; E. coli 13090): 1
- MIC ([11]; E. coli 13090, clinical strain, Caen hemoculture, broth microdilution, 3 independent experiments): 0.5 (0.65) μM
- MBC/MIC ([12]; K. pneumoniae 13829): 2
- MIC ([12]; K. pneumoniae 13829, clinical strain, Caen hemoculture, broth microdilution, 3 independent experiments): 8 (10.4) μM
- MBC/MIC ([13]; P. aeruginosa 15643): 2
- MIC ([13]; P. aeruginosa 15643, clinical strain, Caen hemoculture, broth microdilution, 3 independent experiments): 0.5 (0.65) μM
- MBC/MIC ([14]; E. coli 283): 1
- MIC ([14]; E. coli 283, clinical strain, Rennes urinary catheter, broth microdilution, 3 independent experiments): 0.5 (0.65) μM
- MBC/MIC ([15]; P. aeruginosa 15644): 2
- MIC ([15]; P. aeruginosa 15644, clinical strain, Caen hemoculture, broth microdilution, 3 independent experiments): 1 (1.3) μM
- MBC/MIC ([16]; E. coli 146): 1
- MIC ([16]; E. coli 146, clinical strain, Rennes urinary catheter, broth microdilution, 3 independent experiments): 1 (1.3) μM
- MBC/MIC ([17]; A. baumanii 11896): 2
- MIC ([17]; A. baumanii 11896, clinical strain, Caen hemoculture, broth microdilution, 3 independent experiments): 1 (1.3) μM
- MBC/MIC [18]: 1
- MBC/MIC [19]: 2
- MIC [19, 37]: 8 (10.4) μM
- MBC/MIC ([20]; P. aeruginosa 15641): 2
- MIC ([20]; P. aeruginosa 15641, clinical strain, Caen hemoculture, broth microdilution, 3 independent experiments): 1 (1.3) μM
- MBC/MIC ([21]; P. aeruginosa 15637): 2
- MIC ([21]; P. aeruginosa 15637, clinical strain, Caen hemoculture, broth microdilution, 3 independent experiments): 1 (1.3) μM
- MBC/MIC ([22]; E. coli 508): 1
- MIC ([22]; E. coli 508, clinical strain, Rennes urinary catheter, broth microdilution, 3 independent experiments): 0.5 (0.65) μM
- MBC/MIC ([23]; E. coli 293): 1
- MIC ([23]; E. coli 293, clinical strain, Rennes urinary catheter, broth microdilution, 3 independent experiments): 0.5 (0.65) μM
- MBC/MIC ([24]; E. coli 758): 1
- MIC ([24]; E. coli 758, clinical strain, Rennes urinary catheter, broth microdilution, 3 independent experiments): 0.5 (0.65) μM
- MBC/MIC ([25]; E. coli 444): 1
- MIC ([25]; E. coli 444, clinical strain, Rennes urinary catheter, broth microdilution, 3 independent experiments): 0.5 (0.65) μM
- MBC/MIC [26]: 1
- MIC ([26]; clinical strain, Rennes vascular prosthetics, broth microdilution, 3 independent experiments): 0.5 (0.65) μM
- MBC/MIC [27]: 1
- MIC [27]: 0.5 (0.65) μM
- MBC/MIC ([28]; P. aeruginosa 15638): 2
- MIC ([28]; P. aeruginosa 15638, clinical strain, Caen hemoculture, broth microdilution, 3 independent experiments): 1 (1.3) μM
- MBC/MIC ([29]; E. coli MCR−1): 1
- MIC ([29]; E. coli MCR−1, clinical strain, Caen hemoculture, broth microdilution, 3 independent experiments): 2 (2.6) μM
- MBC/MIC ([30]; E. coli 066): 1
- MIC ([30]; E. coli 066, clinical strain, Rennes urinary catheter, broth microdilution, 3 independent experiments): 1 (1.3) μM

Compound: nisin
- MIC ([3]; S. aureus N315 (MRSA), broth microdilution, 3 independent experiments): 8 (32) μM
- MIC [31]: 8 (32) μM
- MIC [32]: 8 (32) μM
- MIC [27]: 4 (16) μM

Compound: C[C@@H]1O[C@@H]1P(=O)(O)O [Fosfomycin, fosfomycin, reference compound]
- MIC ([33]; P. aeruginosa 15643, d0 of serial passages): 27 µg/mL
- MIC ([33]; Pseudomonas aeruginosa, 15643): 200 µM
- MIC ([34]; E. coli K12, d0 of serial passages): 27 µg/mL
- MIC ([34]; Escherichia coli, K12): 200 µM
- MIC ([35]; E. coli MCR1, d0 of serial passages): 27 µg/mL
- MIC ([35]; Escherichia coli, MCR1): 200 µM
- MIC ([36]; E. coli 13090, d0 of serial passages): 27 µg/mL
- MIC ([36]; Escherichia coli, 13090): 200 µM

Reference: article PMC6615598, “Novel antibiotics effective against gram-positive and -negative multi-resistant bacteria with limited resistance” (PLoS Biology, 2019)
